The target in this experiment is Mcl-1 (Homo sapiens, UniProt Q07820). The experiment can be described thus: FP-based binding assay, Mcl-1. Conditions: for Ki: read-out: Mcl-1 Ki ± SD; for binding to Mcl-1, result in words: FP assay.
Where [1] appears, read: competitive FP, Flu-BID 2 nM, Mcl-1 90 nM, read-out: Mcl-1 IC50 ± SD.
The mark [2] stands for this setting: competitive FP, Ki calculated from IC50.

The values below come from patent US9486422B2, “Small molecule inhibitors of Mcl-1 and the uses of thereof” (THE REGENTS OF THE UNIVERSITY OF MICHIGAN, priority 2011, dated 2016).

Where two headings read alike, the source gives them in different places.

Sequence of Mcl-1 (Q07820 171-327): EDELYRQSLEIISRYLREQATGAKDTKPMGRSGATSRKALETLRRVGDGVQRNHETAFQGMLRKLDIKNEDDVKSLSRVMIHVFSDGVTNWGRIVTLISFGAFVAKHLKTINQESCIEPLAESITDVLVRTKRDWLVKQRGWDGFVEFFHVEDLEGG

Take `O=C(O)CSc1cc(NS(=O)(=O)c2cccc(Br)c2)c2ccccc2c1O` [Compound 10, 2-((4-(3-Bromophenylsulfonamido)-1-hydroxynaphthalen-2-yl)thio)acetic acid]: under setting [1], the IC50 (in general, the midpoint of a concentration-inhibition curve) worked out at 8.64 ± 0.69 µM. Further, under setting [2], the Ki (usually a measure of affinity in units of concentration, obtained from inhibition or displacement) is 2.35 ± 0.19 µM.

`O=C(O)CSc1cc(NS(=O)(=O)c2ccc(-c3ccc(Cl)cc3)cc2)c2ccccc2c1O` [Compound 17, 2-((4-(4′-Chloro-[1,1′-biphenyl]-4-ylsulfonamido)-1-hydroxynaphthalen-2-yl)thio)acetic acid]: the IC50 under setting [1] is 0.68 ± 0.14 µM. The Ki under setting [2] is 0.17 ± 0.04 µM.

Regarding `O=S(=O)(Nc1cc(CCCCO)c(O)c2ccccc12)c1ccc(Br)cc1` [Compound 32, 4-Bromo-N-(4-hydroxy-3-(4-hydroxybutyl)naphthalen-1-yl)benzenesulfonamide], the “fold decreased binding to Mcl-1 compared to 9 (UMI-77)” value turned out to be 4 fold and the Ki is 2.18 ± 0.91 µM. Besides, under setting [1], the IC50 was 8.01 ± 3.31 µM.

With `CC(C)c1ccc(S(=O)(=O)Nc2cc(SCC(=O)O)c(O)c3ccccc23)cc1` [Compound 5], under setting [2], the Ki was 1.06 ± 0.17 µM. For the same compound, the IC50 (read-out: Mcl-1 IC50 ± SD) is 3.92 ± 0.63 µM.

Regarding `O=C(O)CSc1cc(NS(=O)(=O)Cc2ccc(Cl)cc2)c2ccccc2c1O` [Compound 25, 2-((4-((4-Chlorophenyl)methylsulfonamido)-1-hydroxynaphthalen-2-yl)thio)acetic acid], under setting [1], the IC50 stood at 19.1 ± 1.31 µM. In addition, the Ki under setting [2] is 5.23 ± 0.36 µM.

`O=C(O)CCSc1cc(NS(=O)(=O)c2cccc3ccccc23)c2ccccc2c1O` [Compound 35]: the IC50 under setting [1] was over 50 µM. For the same compound, the Ki under setting [2] is over 12.5 µM.

As to `O=S(=O)(Nc1ccc(O)c2ccccc12)c1ccccc1` [Compound 27, N-(4-Hydroxynaphthalen-1-yl)benzenesulfonamide], the “binding to Mcl-1, result in words” value is given as “abolished binding”. For the same compound, the IC50 under setting [1] was over 100 µM. Under setting [2], the Ki is over 25 µM.

In turn, `O=C(O)CSc1cc(NS(=O)(=O)c2cc3ccccc3s2)c2ccccc2c1O` [Compound 12, 2-((4-(Benzo[b]thiophene-2-sulfonamido)-1-hydroxynaphthalen-2-yl)thio)acetic acid] registered an IC50 of 5.66 ± 1.15 µM. Moreover, under setting [2], the Ki was 1.54 ± 0.32 µM.

For `CCc1ccc(S(=O)(=O)Nc2cc(SCC(=O)O)c(O)c3ccccc23)cc1` [Compound 4], the IC50 under setting [1] came to 5.73 ± 1.34 µM. The Ki under setting [2] was 1.55 ± 0.37 µM.

For `CCOc1ccc(S(=O)(=O)Nc2cc(SCC(=O)O)c(O)c3ccccc23)cc1` [Compound 19], the IC50 under setting [1] stood at 50.1 ± 4.15 µM. Moreover, the Ki under setting [2] was 13.7 ± 1.14 µM.

For the compound `COc1c(SCC(N)=O)cc(NS(=O)(=O)c2ccc(Br)cc2)c2ccccc12` [Compound 4v, 2-((4-(4-Bromophenylsulfonamido)-1-methoxynaphthalen-2-yl)thio)acetamide], the “binding to Mcl-1, result in words” value was “loss of binding”. Besides, the Ki under setting [2] is over 25 µM.

`O=C(O)CSc1cc(NS(=O)(=O)c2ccc3ccccc3c2)c2ccccc2c1O` [Compound 13]: under setting [1], the IC50 was 2.74 ± 0.18 µM. Moreover, the Ki under setting [2] was 0.73 ± 0.05 µM.

With `O=C(O)CSc1cc(NS(=O)(=O)c2ccccc2Br)c2ccccc2c1O` [Compound 11, 2-((4-(2-Bromophenylsulfonamido)-1-hydroxynaphthalen-2-yl)thio)acetic acid], the Ki came out at 4.42 ± 0.86 µM. In addition, the IC50 under setting [1] was found to be 16.2 ± 3.12 µM.

With `O=C(O)CSc1cc(NS(=O)(=O)c2ccccc2)c2ccccc2c1O` [Compound 2, 2-((1-Hydroxy-4-(phenylsulfonamido)naphthalen-2-yl)thio)acetic acid], the Ki stood at 3.56 ± 0.45 µM. For the same compound, the IC50 under setting [1] worked out at 13 ± 1.62 µM.

For `O=C(O)CSc1cc(NS(=O)(=O)c2ccc(F)cc2)c2ccccc2c1O` [Compound 7], the IC50 under setting [1] came out at 15.5 ± 3.38 µM. Besides, under setting [2], the Ki was 4.23 ± 0.93 µM.

For `CCCCSc1cc(NS(=O)(=O)c2ccc(Br)cc2)c2ccccc2c1OC` [Compound 40p, 4-Bromo-N-(3-(butylthio)-4-methoxynaphthalen-1-yl)benzenesulfonamide], the IC50 under setting [1] is over 800 µM. Further, the Ki under setting [2] is over 200 µM.
